Reference: patent publication US9359314B2, “Thiazine amide derivative and pharmaceutical composition and use thereof” (Institute Of Pharmacology And Toxicology Academy Of …, priority 2012, dated 2016)

How the values were obtained:
[1] = system: chicken embryonic dorsal root ganglia; test: Neurotrophic activity: in-vitro serum-free culture model of chicken embryonic dorsal root ganglia, neurite growth score; assay type: cell-based; conditions: 48 h, score 0-3, control 0.33
Experimental: The neurotrophic activity of the compound of the present invention can be reflected on a variety of in-vitro biological models, such as an in-vitro serum-free culture model of chicken embryonic dorsal root ganglia. Chicken embryo incubated for 8 d was used, and spine and ganglia on the two sides were exposed under a dissecting microscope in sterile environment. The dorsal root ganglia was picked one by one with tweezers, inoculated into culture bottles laid with rat tail collagen according to 5-6 dorsal root ganglia per bottle, two bottles were prepared per dose, and cultured at 37° C., 5% of CO2, for 1 h in an incubator for adherence, then added with a serum-free culture medium DMEM containing NGF (0.15 ng/mL) and the compound of the present invention, while the control group was only added with the culture medium and the same dose of NGF. After being cultured in the incubator for 48 h, the growth of the neurite around dorsal root ganglia was observed under an inverted phase contrast microscope and scored according to the length and density of the neurite, wherein 0 point represents no neurite; 1 point represents the neurite was sparse; 2 points represent the neurite was relatively long or dense; and 3 points represent the neurite was long and dense. The score of the growth of neurite of chicken embryonic dorsal root ganglion under the promotion of the compound of the present invention with different dosage was shown in table 1, wherein each score is an average of five dorsal root ganglia.

BCAO-LBP mice = test: Anti incomplete cerebral ischemia effect in mouse bilateral carotid artery occlusion with low blood pressure (BCAO-LBP) model, intragastric administration; assay type: in vivo, Kunming mice; conditions: 30 mg/kg i.g once per day for 3 d, x ± SEM; for Neural deficit score: medium group 3.92 ± 0.25; for MDA content: whole brain, medium group 40.94 ± 1.754
From the text: The example, which took Kunming mice as experimental subjects, investigated the protection of prevention administration of the compound of the present invention against incomplete cerebral ischemia of mice, through intravenous and intragastric administration, on mouse bilateral carotid artery occlusion with low blood pressure (BCAO-LBP) model, by measuring neurological function score and MDA content in brain.
2.1.2 Preparation of drug for intragastric administration: the compound of the present invention was made into 30 mg/kg by using 0.7% CMC-Na, fully and uniformly mixed with sonication to afford a solution of 1.5 mg/ml. Intragastric (i.g) administration was performed according to 0.2 ml/10 g.
28 mice which had adapted to the laboratory environment for one week were divided into balanced groups according to body weight, i.g administered respectively with 0.7% CMC-Na or the compound of the present invention, once per day for continuous 3 d. The specific groups were as follows:
drug group: 12 mice, with i. g of solution of compounds of the present invention separately, wherein the dosage was 30 mg/kg
2.3.1 Mouse bilateral carotid artery ligation: the mouse was performed with orbit bloodletting (about 30% of the total blood volume of the mouse) to lower the blood pressure 1 h later after last administration, then the mouse was fixed on an operation plate in a supine position, and an incision in the middle of the neck was made. The common carotid artery was exposed with blunt separation, and 2 sutures were prepared under each end of the exposed artery, and both end of the artery were ligatured, respectively. When the ligation was completed for the […], started timing, then cut the common carotid artery between the two ligations, and the incision was sutured. In the sham operation group, the common carotid artery was separated without ligation. The mouse was rapidly released after the operation, the behavior in 6 h and the death time of the mouse was observed and recorded (scored by a blind method according to the following table). The brain was quickly took out after death, the cerebellum was removed, and the MDA content in the whole brain was determined by a TBA method.
The brain of a mouse was taken out, weighted, prepared into 15% brain homogenate with N.S, 1.2 ml of the homogenate was taken out and put into a 37° C. water bath for 1 h (shaked once every 10 min), then taken out from water, added with 0.6 ml of 20% trichloroacetic acid, uniformly mixed, and stood for 10 min, centrifugated at 2000 r for 10 min, 1.2 ml of supernatant fluid was added with 0.6 ml of 0.67% TBA, and put into a boiling water bath for 10 min, then cooled, and OD value was determined at 532 nm.
Experimental data was represented by x±SEM, SPSS13.0 statistical software was applied, homogeneity of variance was judged by single-factor variance analysis. The homogeneity of variance was tested by LSD, the non-homogeneity of variance was tested by Dunnett's T3, the significant differences between the groups were compared and P<0.05 represented a statistical significance.

MDCK-MDR1 cells = system: MDCK-MDR1 cells
From the text: MDCK-MDR1 cells are monolayer cells with high expression of a P-gp transporter after MDR1 genes are transfected in MDCK (Madin-Darby canine kidney epithelial cells). Due to the compactness of the monolayer cells and high expression of a pharmaceutical efflux protein, the cells have a similarity to the structure of the blood-brain barrier (BBB), and can be used as one of the models for evaluating the BBB permeability. Because the compounds of the present invention targeted at the central nervous system and were needed to permeate the BBB, the MDCK-MDR1 cells were applied to research the membrane permeability, and the BBB permeability was preliminarily evaluated.
The cryopreserved MDCK-MDR1 cells were fast thawed in a 37° C. water bath. The postthawed cells were added into a DMEM culture medium containing 10% FBS, cultured in an incubator at 37° C., 5% CO2, with the relative humidity of 90%, and the culture medium was replaced every other day. After 1-2 days' growth for cell fusion, the cells were digested at 37° C., with the mixed digestion solution of 0.25% trysin-EDTA (0.2%), and subcultured according to a certain ratio, wherein the cells used for the experiment are 40˜60-generation cells.
When 80% of the cells were fused, the cells were suspended with a complete culture medium, and inoculated into a Millicell plate according to 1×10^6-mL^−1. The culture solution was changed once every two days, then once every day after 1 week. After cultured for 5 days, the cells were ready for transport experiment when the resistance achieves a platform (>2000 Ω·cm^2).
The solution in the lower pools was collected at 0, 30, 90 and 120 min and stored at −20° C. for later measurement. The permeation amount of the Rho-123 in the lower pools was detected by a fluorescence spectrophotometer, wherein the transmission wavelength was set to […] and the excitation wavelength was set to 530 nm.
The Millicell inoculated with cells was soaked with HBSS solution at 37° C. for an appropriate time before the test, and slightly flushed to remove matters attached on the surfaces of the cells. […] Each concentration was repeated in three wells, the sample was precisely added with 50 μL of internal standard solution and 350 μL of ethyl acetate, shaked and uniformly mixed, centrifugated at 12000 rmp for 5 min, 300 μL of supernatant was took, volatilized to dryness, re-dissolved with 50 μL of acetonitrile and 10 μL was took for sampling and determination. Permeability from the basal surface to the cavity surface: drug was added from the basolateral side (BL), while the blank HBSS solution was added from the apical side (AP), and the following steps were same as those in the permeability test from the cavity surface to the basal surface.
The apparent permeability coefficient (Papp) of the drug reflected the capability of permeating the monolayer cells of the drug and the absorption speed and degree of the drug, which can be calculated by the following formula: […]
wherein, ΔQ was the permeation amount of the drug in a Δt time period, A was the surface area of the cells, namely the area (0.6 cm^2) of a support membrane in the model, and CO was the initial concentration. The unit of the Papp was commonly represented by cm·h^−1 or cm·s^−1.
The sample was detected by LC/MS. Concentration of each sample was quantified with a standard curve (50 nM-10000 nM).

[2] = compound 1 pM + NGF (0.15 ng/mL)
[3] = compound 100 pM + NGF (0.15 ng/mL)

SMILES | Mean score (growth of neurite of chicken embryonic dorsal root ganglion) [1, 2] | Mean score (growth of neurite of chicken embryonic dorsal root ganglion) [1, 3] | Neural deficit score (BCAO-LBP mice) | MDA content (BCAO-LBP mice) [nmol/g] | Papp(×10^−6) (MDCK-MDR1 cells) | melting point [°C]
CCOC(=O)[C@H](CC(C)C)NC(=O)[C@@H]1CSCCN1S(=O)(=O)c1ccc(C)cc1 [Example 5, (2S)-4-Methyl-2-{[(3R)-4-(toluene-4-sulfonyl)-thiomorpholine-3-carbonyl]-amino}-pentanoic acid ethyl ester] | 0.65 | 1.55 | 3.62 ± 0.31 | 36.09 ± 1.85 | 8.38 ×10^−6 | –
Cc1ccc(S(=O)(=O)N2CCSC[C@H]2C(=O)N[C@H](CC(C)C)C(=O)O)cc1 [Example 10, (2R)-4-Methyl-2-{[(3R)-4-(toluene-4-sulfonyl)-thiomorpholine-3-carbonyl]-amino}-pentanoic acid] | – | – | – | – | 34.1 ×10^−6 | –
Cc1ccc(S(=O)(=O)N2CCSC[C@H]2C(=O)N[C@H](CC(C)C)C(=O)O)cc1 (hydrate or solvate) [Example 10, (2R)-4-Methyl-2-{[(3R)-4-(toluene-4-sulfonyl)-thiomorpholine-3-carbonyl]-amino}-pentanoic acid] | – | – | – | – | – | 87 to 89
CCOC(=O)[C@@H](CC(C)C)NC(=O)[C@@H]1CSCCN1S(=O)(=O)c1ccc(C)cc1 [Example 6, (2R)-4-Methyl-2-{[(3R)-4-(toluene-4-sulfonyl)-thiomorpholine-3-carbonyl]-amino}-pentanoic acid ethyl ester] | 1.23 | 1.88 | 3.08 ± 0.40 | 30.87 ± 0.95 | 19.2 ×10^−6 | –
Cc1ccc(S(=O)(=O)N2CCSC[C@H]2C(=O)N[C@H](CC(C)C)C(=O)OC(C)C)cc1 [Example 8, (2R)-4-Methyl-2-{[(3R)-4-(toluene-4-sulfonyl)-thiomorpholine-3-carbonyl]-amino}-pentanoic acid isopropyl ester] | 1.68 | 2.25 | 2.67 ± 0.31 | 33.27 ± 1.91 | 39.5 ×10^−6 | –
Cc1ccc(S(=O)(=O)N2CCSC[C@H]2C(=O)N[C@H](CC(C)C)C(=O)OCc2ccccc2)cc1 [Example 9, (2R)-4-Methyl-2-{[(3R)-4-(toluene-4-sulfonyl)-thiomorpholine-3-carbonyl]-amino}-pentanoic acid benzyl ester] | – | – | – | – | 12.4 ×10^−6 | 91 to 93
CCCOC(=O)[C@@H](CC(C)C)NC(=O)[C@@H]1CSCCN1S(=O)(=O)c1ccc(C)cc1 [Example 7, (2R)-4-Methyl-2-{[(3R)-4-(toluene-4-sulfonyl)-thiomorpholine-3-carbonyl]-amino}-pentanoic acid propyl ester] | 1.46 | 1.95 | 2.91 ± 0.28 | 34.90 ± 1.65 | 49.8 ×10^−6 | –
